The values that follow come from publication PMC9639207 (RSC Advances, 2022).

For data set [1], the target named is dipeptidyl peptidase-IV (DPP-IV) (Homo sapiens, UniProt P27487). The data set can be described thus: In vitro proteolytic stability against DPP-IV. The data set is classed as in vitro ADME. To be noted: for half-life: isolated enzyme dpp iv, pH 7.4.
The nature of data set [2]: In vitro stability on incubation with mouse serum. The data set is classed as in vitro ADME. To be noted: for half-life at 200 µM: mouse, serum.

Chain of dipeptidyl peptidase-IV (DPP-IV) (P27487 whole entry, species assumed): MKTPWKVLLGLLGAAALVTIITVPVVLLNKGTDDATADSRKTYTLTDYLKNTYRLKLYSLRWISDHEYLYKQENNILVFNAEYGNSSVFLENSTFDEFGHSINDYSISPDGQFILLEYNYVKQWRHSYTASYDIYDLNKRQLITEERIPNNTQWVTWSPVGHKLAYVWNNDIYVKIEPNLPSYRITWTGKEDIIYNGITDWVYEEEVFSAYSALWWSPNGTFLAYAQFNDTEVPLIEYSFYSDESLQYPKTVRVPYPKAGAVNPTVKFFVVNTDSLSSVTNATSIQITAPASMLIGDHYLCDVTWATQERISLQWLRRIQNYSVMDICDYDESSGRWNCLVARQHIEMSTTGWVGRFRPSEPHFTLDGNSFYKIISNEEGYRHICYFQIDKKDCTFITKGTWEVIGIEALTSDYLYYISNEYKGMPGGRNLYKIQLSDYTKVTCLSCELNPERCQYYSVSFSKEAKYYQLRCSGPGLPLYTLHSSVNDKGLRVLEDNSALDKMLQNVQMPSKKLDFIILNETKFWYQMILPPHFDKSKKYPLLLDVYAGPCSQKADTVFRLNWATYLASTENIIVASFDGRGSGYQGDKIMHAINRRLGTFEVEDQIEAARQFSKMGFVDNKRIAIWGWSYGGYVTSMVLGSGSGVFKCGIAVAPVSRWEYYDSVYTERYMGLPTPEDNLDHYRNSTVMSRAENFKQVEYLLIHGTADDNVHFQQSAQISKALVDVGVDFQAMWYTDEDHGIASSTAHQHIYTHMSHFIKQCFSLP

In the case of `CC[C@H](C)[C@H](NC(=O)[C@H](Cc1ccccc1)NC(=O)[C@H](CCC(=O)O)NC(=O)[C@H](CCCCN)NC(=O)[C@H](C)NC(=O)[C@H](C)NC(=O)[C@H](CCC(N)=O)NC(=O)CNC(=O)[C@H](CCC(=O)O)NC(=O)[C@H](CC(C)C)NC(=O)[C@H](Cc1ccc(O)cc1)NC(=O)[C@H](CO)NC(=O)[C@H](CO)NC(=O)[C@@H](NC(=O)[C@H](CC(=O)O)NC(=O)[C@H](CO)NC(=O)[C@@H](NC(=O)[C@H](Cc1ccccc1)NC(=O)[C@@H](NC(=O)CNC(=O)[C@H](CCC(=O)O)NC(=O)[C@H](C)NC(=O)[C@@H](N)Cc1c[nH]cn1)[C@@H](C)O)[C@@H](C)O)C(C)C)C(=O)N[C@@H](C)C(=O)N[C@@H](Cc1c[nH]c2ccccc12)C(=O)N[C@@H](CC(C)C)C(=O)N[C@H](C(=O)N[C@@H](CC(=O)N[C@@H]1O[C@H](CO)[C@@H](O[C@@H]2O[C@H](CO)[C@@H](O[C@@H]3O[C@H](CO[C@H]4O[C@H](CO)[C@@H](O)[C@H](O)[C@@H]4O[C@@H]4O[C@H](CO)[C@@H](O[C@@H]5O[C@H](CO)[C@H](O)[C@H](O)[C@H]5O)[C@H](O)[C@H]4NC(C)=O)[C@@H](O)[C@H](O[C@H]4O[C@H](CO)[C@@H](O)[C@H](O)[C@@H]4O[C@@H]4O[C@H](CO)[C@@H](O[C@@H]5O[C@H](CO)[C@H](O)[C@H](O)[C@H]5O)[C@H](O)[C@H]4NC(C)=O)[C@@H]3O)[C@H](O)[C@H]2NC(C)=O)[C@H](O)[C@H]1O)C(=O)NCC(=O)N[C@H](C(=O)NCC(=O)O)[C@@H](C)O)C(C)C` [Glycan-GLP-1-5(G2)], the half-life in data set [1] was 3.0333 ± 0.00167 h. In data set [2], this molecule returned a half-life at 200 µM of 6.51 ± 0.225 h.
Regarding `CC[C@H](C)[C@H](NC(=O)[C@H](Cc1ccccc1)NC(=O)[C@H](CCC(=O)O)NC(=O)[C@H](CCCCN)NC(=O)[C@H](C)NC(=O)[C@H](C)NC(=O)[C@H](CCC(N)=O)NC(=O)CNC(=O)[C@H](CCC(=O)O)NC(=O)[C@H](CC(C)C)NC(=O)[C@H](Cc1ccc(O)cc1)NC(=O)[C@H](CO)NC(=O)[C@H](CO)NC(=O)[C@@H](NC(=O)[C@H](CC(=O)O)NC(=O)[C@H](CO)NC(=O)[C@@H](NC(=O)[C@H](Cc1ccccc1)NC(=O)[C@@H](NC(=O)CNC(=O)[C@H](CCC(=O)O)NC(=O)[C@H](C)NC(=O)[C@@H](N)Cc1c[nH]cn1)[C@@H](C)O)[C@@H](C)O)C(C)C)C(=O)N[C@@H](C)C(=O)N[C@@H](Cc1c[nH]c2ccccc12)C(=O)N[C@@H](CC(C)C)C(=O)N[C@H](C(=O)N[C@@H](CC(=O)N[C@@H]1O[C@H](CO)[C@@H](O[C@@H]2O[C@H](CO)[C@@H](O[C@@H]3O[C@H](CO[C@H]4O[C@H](CO)[C@@H](O)[C@H](O)[C@@H]4O[C@@H]4O[C@H](CO)[C@@H](O[C@@H]5O[C@H](CO[C@]6(C(=O)O)C[C@H](O)[C@@H](NC(C)=O)[C@H]([C@H](O)[C@H](O)CO)O6)[C@H](O)[C@H](O)[C@H]5O)[C@H](O)[C@H]4NC(C)=O)[C@@H](O)[C@H](O[C@H]4O[C@H](CO)[C@@H](O)[C@H](O)[C@@H]4O[C@@H]4O[C@H](CO)[C@@H](O[C@@H]5O[C@H](CO[C@]6(C(=O)O)C[C@H](O)[C@@H](NC(C)=O)[C@H]([C@H](O)[C@H](O)CO)O6)[C@H](O)[C@H](O)[C@H]5O)[C@H](O)[C@H]4NC(C)=O)[C@@H]3O)[C@H](O)[C@H]2NC(C)=O)[C@H](O)[C@H]1O)C(=O)NCC(=O)N[C@H](C(=O)NCC(=O)O)[C@@H](C)O)C(C)C` [Glycan-GLP-1-5(G2S2)], in data set [1], the half-life is 4.088 ± 0.0217 h. The “Fold in vitro half-life relative to native GLP-1, DPP-IV incubation” value in data set [1] (ratio to native GLP-1 (10.2 min), DPP-IV, 37 °C) came to 24.0 fold. The half-life at 200 µM in data set [2] turned out to be 12.9 ± 0.17 h. The “Fold in vitro half-life relative to native GLP-1, serum incubation” value in data set [2] (ratio to native GLP-1 (55.7 min), mouse serum, 37 °C) was 13.9 fold.

A word on the half-life: it is how long it takes for the measured level to halve. Read a low half-life as rapid decline.
